Values of other authors, collected in patent publication US20230201393A1, “DI[…] AND METHODS USING POLYMER COMPOSITIONS THAT FORM CHLORINE DIOXIDE GAS” (priority 2020, published 2023).

Tests used:
[1] = system: Influenza A
[2] = system: poliovirus 1; details: 4 ppm ClO2, 5 minutes of exposure

## [O][Cl+][O-] [Chlorine dioxide]
[1]; 0.03 ppm ClO2 administered after, versus 30% when untreated
  survival rate: 100%
[1]; 0.03 ppm of ClO2 administered at the same time as the virus
  log kill: 4 log
[2]
  inactivation: ≥ 99.9%
other
  miscibility in water: up to 60 g/L
